Assay results: patent publication US20080014584A1, “MODULATING ANDROGEN RECEPTOR ACTIVITY” (MAYO FOUNDATION FOR MEDICAL EDUCATION AND RESEARCH, priority 2006, published 2008)

How the values were obtained:
Assay type in all cases: cell-based
Details in all cases: 1 nM mibolerone, 24 hours
[1] = target: T1, AR (Homo sapiens, UniProt P10275, T878A); experiment: PSA mRNA expression (Northern blot) in LNCaP cells; design: The androgen depletion independent (ADI) LNCaP-derived C4-2 cell line was purchased from UroCor; endogenous in cells; host or cells: C4-2
T1 sequence (P10275 1-920 T878A): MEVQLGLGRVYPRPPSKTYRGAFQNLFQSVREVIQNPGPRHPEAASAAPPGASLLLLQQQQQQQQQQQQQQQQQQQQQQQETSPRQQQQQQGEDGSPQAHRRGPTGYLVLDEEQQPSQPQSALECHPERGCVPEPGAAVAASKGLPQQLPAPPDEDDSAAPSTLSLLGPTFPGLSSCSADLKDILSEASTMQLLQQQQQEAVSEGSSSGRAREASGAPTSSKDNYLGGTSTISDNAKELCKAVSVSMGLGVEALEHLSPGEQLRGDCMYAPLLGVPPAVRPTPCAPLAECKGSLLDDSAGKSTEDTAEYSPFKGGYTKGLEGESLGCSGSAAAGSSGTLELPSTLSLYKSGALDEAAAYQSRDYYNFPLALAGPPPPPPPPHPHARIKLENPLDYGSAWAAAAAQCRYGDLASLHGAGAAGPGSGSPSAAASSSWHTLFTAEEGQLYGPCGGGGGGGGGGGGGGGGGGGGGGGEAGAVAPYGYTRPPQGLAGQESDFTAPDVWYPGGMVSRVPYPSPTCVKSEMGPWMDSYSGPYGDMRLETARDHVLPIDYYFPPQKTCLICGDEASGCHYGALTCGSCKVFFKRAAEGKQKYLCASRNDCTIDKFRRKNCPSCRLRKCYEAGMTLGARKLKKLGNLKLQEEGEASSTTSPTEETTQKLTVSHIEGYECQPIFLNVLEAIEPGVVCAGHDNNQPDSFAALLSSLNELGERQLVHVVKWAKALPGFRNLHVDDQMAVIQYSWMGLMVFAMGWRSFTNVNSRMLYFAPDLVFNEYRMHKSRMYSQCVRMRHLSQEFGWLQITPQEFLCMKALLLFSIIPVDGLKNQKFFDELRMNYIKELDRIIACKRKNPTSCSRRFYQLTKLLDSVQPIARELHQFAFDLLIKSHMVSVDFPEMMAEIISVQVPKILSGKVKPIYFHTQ
Description: (§1) For androgen response experiments, LNCaP and C4-2 cells were grown in serum-free medium or medium supplemented with 10% charcoal stripped (steroid depleted) serum (CSS) for 48 hours. […] The cells were cultured for an additional 24 hours and then harvested. For C4-2 siRNA-transfection experiments, culture medium was replaced 24 hours post-transfection with RPMI containing 5% CSS. The cells were harvested after 48 hours.
Total cellular RNA was isolated using acid-guanidinium phenol/chloroform extraction as described elsewhere (Chomczynski and Sacchi, Anal Biochem. 162:156-9, (1987)). Equal amounts of RNA (15 μg per lane) were fractionated on 1% denaturing formaldehyde-agarose gels. RNA was transferred to Hybond nylon membranes (Amersham, Piscataway, N.J.), UV cross-linked, and then hybridized with cDNA probes specific for PSA or GAPDH labeled with α^32P-dCTP using a RadPrime labeling kit (Invitrogen). Autoradiography was performed at −80° C. using an intensifier screen (Kodak).

[2] = target: T1, AR; experiment: PSAenh(ARE)-E4-LUC luciferase reporter assay in LNCaP cells; design: endogenous in cells
Description: The cells were harvested after an additional 24 hours. The transfection efficiency was typically 50-70%.

[3] = target: T1, AR; experiment: PSA mRNA expression (Northern blot) in C4-2 cells; design: The androgen depletion independent (ADI) LNCaP-derived C4-2 cell line was purchased from UroCor; endogenous in cells; host or cells: C4-2
Description: as §1
For siRNA transfections, C4-2 cells were seeded at a density of 1.8×10^6 cells on 10 cm dishes in antibiotic-free RPMI 1640 containing 10% FBS. Cells were transfected 24 hours later with 500 pmol of a pool of four siRNAs targeted to the AR (AR SmartPool; Dharmacon, Lafayette, Colo.), or a pool of four non-targeted, control siRNAs (Dharmacon) using 25 μg Lipofectamine (Invitrogen, Carlsbad, Calif.) according to the manufacturer's protocol.
Total cellular RNA was isolated using acid-guanidinium phenol/chloroform extraction as described elsewhere (Chomczynski and Sacchi, Anal Biochem. 162:156-9, (1987)). Equal amounts of RNA (15 μg per lane) were fractionated on 1% denaturing formaldehyde-agarose gels. RNA was transferred to Hybond nylon membranes (Amersham, Piscataway, N.J.), UV cross-linked, and then hybridized with cDNA probes specific for PSA or GAPDH labeled with α^32P-dCTP using a RadPrime labeling kit (Invitrogen). […]

`C[C@@H]1CC2=CC(=O)CC[C@@H]2[C@H]2CC[C@@]3(C)[C@@H](CC[C@]3(C)O)[C@@H]21` [mibolerone] was tested, and the “PSA mRNA expression on androgen treatment” value [1] was “induced high levels of PSA mRNA expression”, the “activation of the ARE-driven promoter PSAenh(ARE)E4-LUC” value [2] was “robust activation” and the “PSA expression on androgen treatment” value [3] was “further increased”.
